Assay results: ChEMBL document CHEMBL3045931, “QSAR studies of antituberculosis drug using three-dimensional structure descriptors” (Med Chem Res, 2013)

Tested on: Mycobacterium tuberculosis
Assay: Antitubercular activity against Mycobacterium tuberculosis assessed as growth inhibition […]
Assay type: functional, organism-based
Conditions: read-out: log(1/IC50) (converted)

In order of rising IC50:
1. O=C(c1ccc2[nH]ccc2c1)N1CCN(C(c2ccc(F)cc2)c2ccc(F)cc2)CC1  1.05 µM
2. Cc1ccc(C(=O)N2CCN(c3cccc(C(F)(F)F)c3)CC2)cc1C  1.86 µM
3. Cc1ccc(C(=O)N2CCN(C(c3ccc(F)cc3)c3ccc(F)cc3)CC2)cc1  1.91 µM
4. O=C(c1ccccc1)N1CCN(C(c2ccc(F)cc2)c2ccc(F)cc2)CC1  2.04 µM
5. Cc1ccc(C(=O)N2CCN(c3cccc(Cl)c3)CC2)cc1  3.09 µM
6. Cc1ccc(C(=O)N2CCC(Cc3ccccc3)CC2)cc1  5.13 µM
7. O=C(c1ccc(Cl)c(Cl)c1)N1CCN(c2cccc(Cl)c2)CC1  6.03 µM
8. Cc1ccc(C(=O)N2CCN(c3cccc(C(F)(F)F)c3)CC2)cc1  6.31 µM
9. O=C(c1cccc(Cl)c1)N1CCN(c2cccc(Cl)c2)CC1  6.76 µM
10. O=C(c1cccc(Cl)c1)N1CCC(Cc2ccccc2)CC1  7.76 µM
11. Cc1cccc(C(=O)N2CCN(c3cccc(Cl)c3)CC2)c1  9.33 µM
12. O=C(c1ccc(F)cc1)N1CCN(c2cccc(Cl)c2)CC1  9.77 µM
13. O=C(c1ccccc1F)N1CCN(c2cccc(Cl)c2)CC1  13.8 µM
14. O=C(c1ccccc1F)N1CCC(Cc2ccccc2)CC1  14.1 µM
15. Cc1cccc(C(=O)N2CCN(c3ccc([N+](=O)[O-])cc3)CC2)c1  15.5 µM
16. Cc1ccc(C(=O)N2CCN(c3ccccc3)CC2)cc1  16.6 µM
17. O=C(c1ccc(Cl)c(Cl)c1)N1CCN(c2ccccc2)CC1  17.8 µM
18. O=C(c1ccccc1)N1CCN(Cc2ccccc2)CC1  31.6 µM
19. O=C(c1ccccc1)N1CCN(c2ccccc2)CC1  38.9 µM
20. CC(C)c1ccc(C(=O)N2CCN(c3cccc(Cl)c3)CC2)cc1  100 µM
21. CC(C)(C)c1ccc(C(=O)N2CCN(c3cccc(C(F)(F)F)c3)CC2)cc1  100 µM
22. Cc1ccc(N2CCN(C(=O)c3ccc(C(C)(C)C)cc3)CC2)cc1Cl  100 µM
23. CC(C)(C)c1ccc(C(=O)N2CCN(c3cccc(Cl)c3)CC2)cc1  100 µM
